# Measured values published in patent US20150148235A1, “HERBICIDE-RESISTANT SUNFLOWER PLANTS WITH MULTIPLE HERBICIDE RESISTANT ALLELES OF AHASL1 AND METHODS OF USE” (NIDERA S.A., priority 2013, published 2015).
# System: sunflower hybrids and lines (A122T, A205V, A205V/A122T)
# Experiment: Field trial North Dakota 2006, phytotoxicity ratings after imazamox or imazapyr, Example 3
# Format: in vivo, Helianthus annuus
# Procedure: • Spray volume: 10 gallons per acre (GPA) (or 100 liters/ha) for backpack sprayer or 20 GPA (or 200 liters/ha) for tractor mounted boom • Growth Stage at Herbicide Application: 2-4 leaves
# Entry 15 (WT Maintainer line) was left unsprayed in all treatment blocks.
# Phytotoxicity ratings were assessed at 7 and 21 days following herbicide application.
# The data was subjected to an ANOVA analysis and the means from the 3 repetitions are presented in Table 7 (phytotoxicity at 7 days post-treatment) and Table 8 (phytotoxicity at 21 days post-treatment).
structure (smiles),measurement,setting,value
COCc1cnc(C2=NC(C)(C(C)C)C(=O)N2)c(C(=O)O)c1 (centres unmarked) [imazamox],Phytotoxicity Rating (% Crop Injury),"1-hybrid (WT × IMI restorer, A205 hetero), 50 g ai/ha + 0.25% NIS, 7 DAT",8.3%
same,Phytotoxicity Rating (% Crop Injury),"1-hybrid (WT × IMI restorer, A205 hetero), 50 g ai/ha + 0.25% NIS, 21 DAT",6.7%
same,Phytotoxicity Rating (% Crop Injury),"1-hybrid (WT × IMI restorer, A205 hetero), 100 g ai/ha + 0.25% NIS, 7 DAT",35.0%
same,Phytotoxicity Rating (% Crop Injury),"1-hybrid (WT × IMI restorer, A205 hetero), 100 g ai/ha + 0.25% NIS, 21 DAT",25.0%
same,Phytotoxicity Rating (% Crop Injury),"1-hybrid (WT × IMI restorer, A205 hetero), 200 g ai/ha + 0.25% NIS, 7 DAT",48.3%
same,Phytotoxicity Rating (% Crop Injury),"1-hybrid (WT × IMI restorer, A205 hetero), 200 g ai/ha + 0.25% NIS, 21 DAT",73.3%
same,Phytotoxicity Rating (% Crop Injury),"3-hybrid (WT × IMI restorer, A205 hetero), 50 g ai/ha + 0.25% NIS, 7 DAT",11.7%
same,Phytotoxicity Rating (% Crop Injury),"3-hybrid (WT × IMI restorer, A205 hetero), 50 g ai/ha + 0.25% NIS, 21 DAT",11.7%
same,Phytotoxicity Rating (% Crop Injury),"3-hybrid (WT × IMI restorer, A205 hetero), 100 g ai/ha + 0.25% NIS, 7 DAT",46.7%
same,Phytotoxicity Rating (% Crop Injury),"3-hybrid (WT × IMI restorer, A205 hetero), 100 g ai/ha + 0.25% NIS, 21 DAT",46.7%
same,Phytotoxicity Rating (% Crop Injury),"3-hybrid (WT × IMI restorer, A205 hetero), 200 g ai/ha + 0.25% NIS, 7 DAT",60.0%
same,Phytotoxicity Rating (% Crop Injury),"3-hybrid (WT × IMI restorer, A205 hetero), 200 g ai/ha + 0.25% NIS, 21 DAT",76.7%
same,Phytotoxicity Rating (% Crop Injury),"4-line (IMI Restorer, A205 homo), 50 g ai/ha + 0.25% NIS, 7 DAT",6.7%
same,Phytotoxicity Rating (% Crop Injury),"4-line (IMI Restorer, A205 homo), 50 g ai/ha + 0.25% NIS, 21 DAT",5.0%
same,Phytotoxicity Rating (% Crop Injury),"4-line (IMI Restorer, A205 homo), 100 g ai/ha + 0.25% NIS, 7 DAT",6.7%
same,Phytotoxicity Rating (% Crop Injury),"4-line (IMI Restorer, A205 homo), 100 g ai/ha + 0.25% NIS, 21 DAT",6.7%
same,Phytotoxicity Rating (% Crop Injury),"4-line (IMI Restorer, A205 homo), 200 g ai/ha + 0.25% NIS, 7 DAT",18.3%
same,Phytotoxicity Rating (% Crop Injury),"4-line (IMI Restorer, A205 homo), 200 g ai/ha + 0.25% NIS, 21 DAT",15.0%
same,Phytotoxicity Rating (% Crop Injury),"6-hybrid (IMI CMS × IMI restorer, A205 homo), 50 g ai/ha + 0.25% NIS, 7 DAT",5.0%
same,Phytotoxicity Rating (% Crop Injury),"6-hybrid (IMI CMS × IMI restorer, A205 homo), 50 g ai/ha + 0.25% NIS, 21 DAT",0.0%
same,Phytotoxicity Rating (% Crop Injury),"6-hybrid (IMI CMS × IMI restorer, A205 homo), 100 g ai/ha + 0.25% NIS, 7 DAT",8.3%
same,Phytotoxicity Rating (% Crop Injury),"6-hybrid (IMI CMS × IMI restorer, A205 homo), 100 g ai/ha + 0.25% NIS, 21 DAT",3.3%
same,Phytotoxicity Rating (% Crop Injury),"6-hybrid (IMI CMS × IMI restorer, A205 homo), 200 g ai/ha + 0.25% NIS, 7 DAT",26.7%
same,Phytotoxicity Rating (% Crop Injury),"6-hybrid (IMI CMS × IMI restorer, A205 homo), 200 g ai/ha + 0.25% NIS, 21 DAT",21.7%
same,Phytotoxicity Rating (% Crop Injury),"7-hybrid (WT-CMS × IMI restorer, A205 hetero), 50 g ai/ha + 0.25% NIS, 7 DAT",13.3%
same,Phytotoxicity Rating (% Crop Injury),"7-hybrid (WT-CMS × IMI restorer, A205 hetero), 50 g ai/ha + 0.25% NIS, 21 DAT",3.3%
same,Phytotoxicity Rating (% Crop Injury),"7-hybrid (WT-CMS × IMI restorer, A205 hetero), 100 g ai/ha + 0.25% NIS, 7 DAT",43.3%
same,Phytotoxicity Rating (% Crop Injury),"7-hybrid (WT-CMS × IMI restorer, A205 hetero), 100 g ai/ha + 0.25% NIS, 21 DAT",40.0%
same,Phytotoxicity Rating (% Crop Injury),"7-hybrid (WT-CMS × IMI restorer, A205 hetero), 200 g ai/ha + 0.25% NIS, 7 DAT",56.7%
same,Phytotoxicity Rating (% Crop Injury),"7-hybrid (WT-CMS × IMI restorer, A205 hetero), 200 g ai/ha + 0.25% NIS, 21 DAT",78.3%
same,Phytotoxicity Rating (% Crop Injury),"8-hybrid (WT × GM40 restorer, A122 hetero), 50 g ai/ha + 0.25% NIS, 7 DAT",13.3%
same,Phytotoxicity Rating (% Crop Injury),"8-hybrid (WT × GM40 restorer, A122 hetero), 50 g ai/ha + 0.25% NIS, 21 DAT",6.7%
same,Phytotoxicity Rating (% Crop Injury),"8-hybrid (WT × GM40 restorer, A122 hetero), 100 g ai/ha + 0.25% NIS, 7 DAT",13.3%
same,Phytotoxicity Rating (% Crop Injury),"8-hybrid (WT × GM40 restorer, A122 hetero), 100 g ai/ha + 0.25% NIS, 21 DAT",11.7%
same,Phytotoxicity Rating (% Crop Injury),"8-hybrid (WT × GM40 restorer, A122 hetero), 200 g ai/ha + 0.25% NIS, 7 DAT",25.0%
same,Phytotoxicity Rating (% Crop Injury),"8-hybrid (WT × GM40 restorer, A122 hetero), 200 g ai/ha + 0.25% NIS, 21 DAT",28.3%
same,Phytotoxicity Rating (% Crop Injury),"9-line (GM40 restorer, A122 homo), 50 g ai/ha + 0.25% NIS, 7 DAT",1.7%
same,Phytotoxicity Rating (% Crop Injury),"9-line (GM40 restorer, A122 homo), 50 g ai/ha + 0.25% NIS, 21 DAT",0.0%
same,Phytotoxicity Rating (% Crop Injury),"9-line (GM40 restorer, A122 homo), 100 g ai/ha + 0.25% NIS, 7 DAT",5.0%
same,Phytotoxicity Rating (% Crop Injury),"9-line (GM40 restorer, A122 homo), 100 g ai/ha + 0.25% NIS, 21 DAT",0.0%
same,Phytotoxicity Rating (% Crop Injury),"9-line (GM40 restorer, A122 homo), 200 g ai/ha + 0.25% NIS, 7 DAT",10.0%
same,Phytotoxicity Rating (% Crop Injury),"9-line (GM40 restorer, A122 homo), 200 g ai/ha + 0.25% NIS, 21 DAT",3.3%
same,Phytotoxicity Rating (% Crop Injury),"10-hybrid (IMI CMS × GM40 restorer, A205/A122 hetero/double), 50 g ai/ha + 0.25% NIS, 7 DAT",3.3%
same,Phytotoxicity Rating (% Crop Injury),"10-hybrid (IMI CMS × GM40 restorer, A205/A122 hetero/double), 50 g ai/ha + 0.25% NIS, 21 DAT",0.0%
same,Phytotoxicity Rating (% Crop Injury),"10-hybrid (IMI CMS × GM40 restorer, A205/A122 hetero/double), 100 g ai/ha + 0.25% NIS, 7 DAT",3.3%
same,Phytotoxicity Rating (% Crop Injury),"10-hybrid (IMI CMS × GM40 restorer, A205/A122 hetero/double), 100 g ai/ha + 0.25% NIS, 21 DAT",0.0%
same,Phytotoxicity Rating (% Crop Injury),"10-hybrid (IMI CMS × GM40 restorer, A205/A122 hetero/double), 200 g ai/ha + 0.25% NIS, 7 DAT",10.0%
